What was measured:
[1] = test system: IκBα phosphorylation (IKK); test: Detection of IκBα phosphorylation: translocation of IκBα-mRFP with anti-phospho-IκBα (Ser32)-MNPs in HeLa cells; assay type: cell-based; settings: HeLa cells treated with various chemical compounds and growth factors
Caspase-3 = target: T1, Caspase-3 (Homo sapiens, UniProt P42574); test: Magnetic-field translocation of mRFP-Caspase3 by DEVD-MNPs in HeLa cells; assay type: cell-based; settings: EGFP expressing cells as negative control showed no motion
T1 construct: mRFP (N); expressed in transfected cells; host or cells: HeLa
T1 sequence (P42574 29-277): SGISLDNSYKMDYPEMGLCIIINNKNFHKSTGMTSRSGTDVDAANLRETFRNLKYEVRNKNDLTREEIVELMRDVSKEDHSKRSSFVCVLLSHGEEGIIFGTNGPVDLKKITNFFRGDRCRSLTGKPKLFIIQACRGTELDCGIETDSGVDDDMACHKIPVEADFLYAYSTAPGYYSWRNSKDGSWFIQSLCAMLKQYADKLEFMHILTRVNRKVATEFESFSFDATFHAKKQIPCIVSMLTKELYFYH
Description: A DEVD-MNPs complex was obtained by reacting a Streptavidin nanoparticle, caspase-3 inhibitor II (DEVD)-biotin conjugate (CALBIOCHEM) and TATHA2-biotin at 40 C for 1 hr while agitating the reaction mixture. Unbound ligands were removed from the reaction mixture by purifying the complex using a paramagnet. After introducing mRFP-Caspase3 or EGFP expressing plasmid into a HeLa cell (ATCC), the cell was incubated. The DEVD-MNPs were introduced into the cell, and a magnetic field (M.F.) was externally applied to the cell using a paramagnet or electromagnet. The confocal images were captured using a confocal laser microscope (Carl Zeiss) for the live cells while applying magnetic field as well as not applying magnetic field.

Row | Substance | translocation of the IκBα-mRFP fusion protein under the magnetic field (interaction activator screening) [1] | localization of cells expressing mRFP-Caspase3 by external magnetic force (Caspase-3)
1 | TNF-α | observed to translocate the IκBα-mRFP fusion protein | 
2 | DEVD-MNPs: Streptavidin nanoparticle reacted with caspase-3 inhibitor II (DEVD)-biotin conjugate and TATHA2-biotin |  | only the cells (indicated with red arrows) expressing mRFP-Caspase3 were localized

From US20080242557A1, “System For Detecting Molecular Interactions” (CGK CO., LTD., priority 2004, published 2008)
